From patent publication US11827628B2, “Compositions and methods for inhibition of the JAK pathway” (Rigel Pharmaceuticals, Inc., priority 2005, dated 2023)

test system: Primary human T-cells; experiment: Primary Human T-Cell Proliferation Assay Stimulated with IL-2 (CellTiter-Glo); assay type: cell-based; details: primary human T-cell proliferation stimulated with IL-2; read-out: IC50, Example 42
Outline: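 IC50 derived from CellTiter-Glo ATP signal after 72 hours of IL-2-driven proliferation at 37° C. Cells: primary human T-cells from blood, stimulated beforehand 3-4 days on anti-CD3/anti-CD28 with IL-2, then rested from IL-2 before compound exposure in duplicate; IL-2-free wells served as unstimulated control.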

| Compound | IC50 [nM] |
| --- | --- |
| Cc1noc(COc2ccc(Nc3nc(Nc4ccc(C)c(S(N)(=O)=O)c4)ncc3F)cc2)n1 [Compound I-259, N2-(3-Aminosulfonyl-4-methylphenyl)-5-fluoro-N4-[4-(3-methyl-1,2,4-oxadiazol-5-yl)methyleneoxyphenyl]-2,4-pyrimidinediamine] | 65.8 |
| Cc1noc(COc2ccc(Nc3nc(Nc4cccc(S(N)(=O)=O)c4)ncc3F)cc2)n1 [Compound I-258, N2-(3-Aminosulfonylphenyl)-5-fluoro-N4-[4-(3-methyl-1,2,4-oxadiazol-5-yl)methyleneoxyphenyl]-2,4-pyrimidinediamine] | 55.4 |
| N2-[3-Aminosulfonyl-4-(4-methylpiperazin-1-yl)phenyl]-5-fluoro-N4-[2-fluoro-4-(5-methylisoxazol-3-yl)methyleneoxyphenyl]-2,4-pyrimidinediamine [Compound I-251] | 155 |
| CCN(CC)CCNS(=O)(=O)c1ccc(Nc2ncc(F)c(Nc3ccc(OCc4csc(C)n4)cc3)n2)cc1 [Compound I-284, N2-[4-(2-N,N-Diethylaminoethyl)aminosulfonylphenyl)-5-fluoro-N4-[4-(2-methylthizol-4-yl)methyleneoxyphenyl]-2,4-pyrimidinediamine] | 421 |
| Cc1nc(COc2ccc(Nc3nc(Nc4ccc(C)c(S(N)(=O)=O)c4)ncc3F)cc2)cs1 [Compound I-280, N2-(3-Aminosulfonyl-4-methylphenyl)-5-fluoro-N4-[4-(2-methylthiazol-4-yl)methyleneoxyphenyl]-2,4-pyrimidinediamine] | 978 |
| Cc1cc(COc2ccc(Nc3nc(Nc4cccc(S(N)(=O)=O)c4)ncc3F)cc2C)no1 [Compound I-238, N2-(3-Aminosulfonylphenyl)-5-fluoro-N4-[3-methyl-4-(5-methylisoxazol-3-yl)methyleneoxyphenyl]-2,4-pyrimidinediamine] | 456 |
| CN1CCN(S(=O)(=O)c2cccc(Nc3ncc(F)c(Nc4ccc(OCC#N)cc4)n3)c2)CC1 [Compound I-19, N4-(4-Cyanomethoxy)phenyl-5-fluoro-N2-[3-(4-methylpiperazin-1-yl)sulfonyl]phenyl-2,4-pyrimidinediamine] | 1040 |
| Cc1cc(Nc2nc(Nc3ccc(S(N)(=O)=O)cc3)ncc2F)cc(C)c1OCC#N [Compound I-25, N2-(4-Aminosulfonyl)phenyl-N4-(4-cyanomethoxy-3,5-dimethyl)phenyl-5-fluoro-2,4-pyrimidinediamine] | 1610 |
| Cc1cc(COc2ccc(Nc3nc(Nc4cc(C)c(F)c(S(N)(=O)=O)c4)ncc3F)cc2)no1 [Compound I-217, N2-(3-Aminosulfonyl-4-fluoro-5-methylphenyl)-5-fluoro-N4-[4-(5-methylisoxazol-3-yl)methyleneoxyphenyl]-2,4-pyrimidinediamine] | 217 |
| COc1cc(Nc2ncc(F)c(Nc3cc(C)c(OCC#N)c(C)c3)n2)ccc1S(N)(=O)=O [Compound I-32, N2-(4-Aminosulfonyl-3-methoxy)phenyl-N4-(4-cyanomethoxy-3,5-dimethyl)phenyl-5-fluoro-2,4-pyrimidinediamine] | 2780 |
| Cc1noc(CCc2ccc(Nc3nc(Nc4ccc(F)c(S(N)(=O)=O)c4)ncc3F)cc2)n1 [Compound I-267, N2-(3-Aminosulfonyl-4-fluorophenyl)-5-fluoro-N4-[4-(3-methyl-1,2,4-oxadiazol-5-yl)ethylenephenyl]-2,4-pyrimidinediamine] | 2020 |
| NS(=O)(=O)c1cccc(Nc2ncc(F)c(Nc3ccc(Cc4ccncc4)cc3)n2)c1 [III-70, N2-(3-Aminosulfonylphenyl)-5-fluoro-N4-[4-(4-pyridinylmethyl)phenyl]-2,4-pyrimidinediamine] | 169 |
| Cc1cc(COc2ccc(Nc3nc(Nc4ccc(F)c(S(N)(=O)=O)c4)ncc3F)cc2C)no1 [Compound I-237, N2-(3-Aminosulfonyl-4-fluorophenyl)-5-fluoro-N4-[3methyl-4-(5-methylisoxazol-3-yl)methyleneoxyphenyl]-2,4-pyrimidinediamine] | 2040 |
| Cc1cc(Nc2nc(Nc3cccc(S(N)(=O)=O)c3)ncc2F)ccc1OCC#N [Compound I-23, N2-(3-Aminosulfonyl)phenyl-N4-(4-cyanomethoxy-3-methyl)phenyl-5-fluoro-2,4-pyrimidinediamine] | 88.2 |
| CCN(CC)CCNS(=O)(=O)c1ccc(Nc2ncc(F)c(Nc3ccc(OCc4cc(C)on4)c(C)c3)n2)cc1 [Compound I-245, N2-[4-(2-N,N-Diethylaminoethyl)aminosulfonylphenyl)-5-fluoro-N4-[3-methyl-4-(5-methylisoxazol-3-yl)methyleneoxyphenyl]-2,4-pyrimidinediamine] | 1740 |
| N#CCOc1ccc(Nc2nc(Nc3cccc(S(N)(=O)=O)c3)ncc2F)cc1 [Compound I-17, N2-(3-Aminosulfonyl)phenyl-N4-(4-cyanomethoxy)phenyl-5-fluoro-2,4-pyrimidinediamine] | 43.2 |
| Cc1noc(COc2ccc(Nc3nc(Nc4ccc(F)c(S(N)(=O)=O)c4)ncc3F)cc2)n1 [Compound I-266, N2-(3-Aminosulfonyl-4-fluorophenyl)-5-fluoro-N4-[4-(3-methyl-1,2,4-oxadiazol-5-yl)methyleneoxyphenyl]-2,4-pyrimidinediamine] | 201 |
| N2-(3-Aminocarbonyl-5-methylphenyl)-5-fluoro-N2-[4-(1-ethylpyrazol-5-yl)amidophenyl)-2,4-pyrimidinediamine [II-20] | 969 |
| CNS(=O)(=O)c1cc(Nc2ncc(F)c(Nc3cccc(OCc4nc(C)no4)c3)n2)ccc1C [Compound I-255, 5-Fluoro-N2-[3-(N-methylaminosulfony)-4-methylphenyl]-N4-[3-(3-methyl-1,2,4-oxadiazol-5-yl)methyleneoxyphenyl]-2,4-pyrimidinediamine] | 2860 |
| Cc1nnc(COc2ccc(Nc3nc(Nc4ccc(F)c(S(N)(=O)=O)c4)ncc3F)cc2)o1 [Compound I-278, N2-(3-Aminosulfonyl-4-fluorophenyl)-5-fluoro-N4-[4-(5-methyl-1,3,4-oxadiazol-2-yl)methyleneoxyphenyl]-2,4-pyrimidinediamine] | 412 |
| Cc1ccc(Nc2ncc(F)c(Nc3ccc(OC4CCCN(C)C4)c(Cl)c3)n2)cc1S(N)(=O)=O (racemic) [II-3, Racemic N2-(3-aminosulfonyl-4-methylphenyl)-N4-{3-chloro-4-[(1-methylpiperidin-3-yl)oxy]phenyl}-5-fluoro-2,4-pyrimidinediamine] | 918 |
| Cc1ccc(Nc2ncc(C)c(Nc3ccc(CCC#N)cc3)n2)cc1S(N)(=O)=O [III-11] | 46 |
| N#CCc1ccc(Nc2nc(Nc3ccc(Cl)c(S(N)(=O)=O)c3)ncc2F)cc1 [III-8, N2-(3-Aminosulfonyl-4-chloro)phenyl-N4-(4-cyanomethyl)phenyl-5-fluoro-2,4-pyrimidinediamine] | 921 |
| Cc1noc(COc2ccc(Nc3nc(Nc4ccc(S(N)(=O)=O)cc4)ncc3F)cc2)n1 [Compound I-268, N2-(4-Aminosulfonylphenyl)-5-fluoro-N4-(4-[3-methyl-1,2,4-oxadiazol-5-yl]methyleneoxyphenyl)-2,4-pyrimidinediamine] | 140 |
